{"source": "paper PMC8187357", "about": "(Communications Biology, 2021)", "key": {"[1]": {"target": "T1, PD-L2 (Mus musculus, UniProt Q9WUL5)", "T1 construct": "purchased R&D Systems 1022-PL-100", "T1 sequence (Q9WUL5 with tags, fused parts or gaps limits assumed)": "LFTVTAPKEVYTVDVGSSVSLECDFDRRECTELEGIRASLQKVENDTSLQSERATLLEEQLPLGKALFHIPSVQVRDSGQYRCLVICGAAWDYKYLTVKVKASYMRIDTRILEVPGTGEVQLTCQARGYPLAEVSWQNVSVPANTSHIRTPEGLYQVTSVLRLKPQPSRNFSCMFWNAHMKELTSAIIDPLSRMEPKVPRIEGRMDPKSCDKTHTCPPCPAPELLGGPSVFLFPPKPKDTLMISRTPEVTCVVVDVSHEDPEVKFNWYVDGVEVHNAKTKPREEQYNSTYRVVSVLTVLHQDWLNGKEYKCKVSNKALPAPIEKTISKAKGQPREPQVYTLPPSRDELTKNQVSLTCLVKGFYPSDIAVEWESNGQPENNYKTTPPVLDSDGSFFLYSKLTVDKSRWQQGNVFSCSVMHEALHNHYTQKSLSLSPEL", "experiment": "Rescue of IFN-γ release inhibited by PD-L2, mouse splenocytes", "assay_type": "cell-based", "details": "mean ± S.D.; n=2; read-out: Mouse Splenocyte IFN-γ Rescue EC50 PD-L2", "description": "(§1) The ability of peptides, peptidomimetics, and small molecules were analyzed for their ability to rescue T-cell proliferation or IFN-γ release from the inhibitory activity of PD-L1 or PD-L2 in a splenocyte/PBMC-based functional assay as per the protocols reported in publication. […] For all in vitro assays, test agent stock was prepared in water and diluted further in the assay media to achieve test concentrations. Each experimental condition was carried out in triplicates. Percent rescue for a given test compound concentration was calculated by normalizing individual percent test agent proliferation or IFN-γ release values to percent anti-CD3 and anti-CD28 antibodies stimulated proliferation or IFN-γ release. EC50 values were derived by plotting transformed data into non-linear fit in sigmoidal dose–response curve using GraphPad Prism software (Version 7)."}, "[2]": {"target": "T2, PD-L2 (Homo sapiens, UniProt Q9BQ51)", "T2 construct": "purchased R&D systems 1224-PL-100", "T2 sequence (Q9BQ51 with tags, fused parts or gaps limits assumed)": "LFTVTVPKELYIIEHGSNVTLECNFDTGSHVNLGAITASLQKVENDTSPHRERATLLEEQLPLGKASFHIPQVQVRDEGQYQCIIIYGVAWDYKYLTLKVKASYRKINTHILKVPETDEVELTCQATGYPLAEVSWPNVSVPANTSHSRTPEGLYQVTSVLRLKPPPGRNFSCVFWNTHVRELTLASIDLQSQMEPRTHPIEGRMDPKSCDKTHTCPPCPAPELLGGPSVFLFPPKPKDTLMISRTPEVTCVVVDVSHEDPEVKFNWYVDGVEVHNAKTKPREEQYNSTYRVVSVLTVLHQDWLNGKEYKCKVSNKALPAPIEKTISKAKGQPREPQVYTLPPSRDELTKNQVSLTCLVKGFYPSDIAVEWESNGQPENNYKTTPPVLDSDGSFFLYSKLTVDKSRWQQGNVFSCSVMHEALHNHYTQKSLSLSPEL", "experiment": "Rescue of IFN-γ release inhibited by PD-L2, human PBMC", "assay_type": "cell-based", "details": "for IFNγ Rescue (%): inhibited by PD-L2; for IFNγ Rescue (%) / IFN-γ: replicates; for IFN-γ: human PBMCs + anti-CD3/anti-CD28 + PD-L2 10 nM", "description": "as §1"}, "[3]": {"target": "T3, VISTA (Homo sapiens, UniProt Q9H7M9)", "T3 construct": "purchased R&D systems 126-B7", "T3 sequence (Q9H7M9 with tags, fused parts or gaps limits assumed)": "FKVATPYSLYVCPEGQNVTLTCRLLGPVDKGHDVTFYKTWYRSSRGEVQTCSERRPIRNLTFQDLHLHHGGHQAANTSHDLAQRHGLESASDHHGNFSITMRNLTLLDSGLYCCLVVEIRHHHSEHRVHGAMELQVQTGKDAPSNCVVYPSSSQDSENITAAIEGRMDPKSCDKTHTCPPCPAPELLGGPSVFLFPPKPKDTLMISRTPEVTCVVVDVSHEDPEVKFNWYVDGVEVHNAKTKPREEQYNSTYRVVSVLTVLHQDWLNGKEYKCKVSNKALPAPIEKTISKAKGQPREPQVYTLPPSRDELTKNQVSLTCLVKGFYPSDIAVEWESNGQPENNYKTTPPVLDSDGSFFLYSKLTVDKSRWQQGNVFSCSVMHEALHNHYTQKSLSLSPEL", "experiment": "VISTA functional assay (IFN-γ release, human PBMC)", "assay_type": "cell-based", "details": "for IFNγ Rescue (%): inhibited by VISTA; for IFNγ Rescue (%) / IFN-γ: replicates; for IFN-γ: human PBMCs + anti-CD3/anti-CD28 + VISTA 2.5 µg/mL", "description": "The ability of CA-170 to rescue VISTA-mediated inhibition of IFN-γ release from anti-CD3/CD28-stimulated human PBMC was used to monitor the effect of CA-170 on VISTA functionality. Briefly, 96-well cell culture plates were pre-coated with recombinant human VISTA (2.5 µg/mL) and anti- human CD3 (2.5 µg/mL) overnight at 4 °C. Anti-human VISTA and isotype control antibodies were either coated along with the VISTA or incubated for 30 min next day before addition of cells. On the next day, plates were incubated with CA-170 for 30 min at different concentrations. Isolated PBMC (0.1 × 10^6 cells/well) and anti-human CD28 antibodies (1 µg/mL) were added to the wells. The culture was further incubated for 72 h at 37 °C with 5% CO2. After 72 h of incubation the cell culture supernatants were collected after brief centrifugation at 200 g x 5 min at 4 °C and processed for human IFN-γ measurement by ELISA following manufacturer’s protocol (R&D Systems; DY-285). Percent rescue of IFN-γ release was calculated by normalizing individual percent test agent IFN-γ release values to percent anti-CD3 and anti-CD28 antibodies stimulated IFN-γ release. EC50 values were derived by plotting transformed data into non-linear fit in sigmoidal dose–response curve using GraphPad Prism software (Version 7)."}, "[4]": {"system": "MC38 colon carcinoma", "experiment": "Antitumor efficacy in MC38 syngeneic model (C57B6)", "assay_type": "in vivo, mouse", "details": "MC38 in C57B6 mice, day 14 of dosing", "description": "For MC38 syngeneic colon carcinoma subcutaneous model, 0.5 × 10^6 MC38 cells (Source: NCI/NIH, kind gift from Dr. Michael Pollack) were injected subcutaneously to the left flank of the C57B6 mouse (In-house) or SCID Beige mice (Source: Harlan, France) on day 1 and dosing was initiated when average tumor volume reached ~100 mm^3. Animals were randomized based on tumor volumes and treated with either a vehicle control or CA-170 at indicated doses for 14 days. Anti-PD1 antibody (Clone J43 from BioXcel) was dosed intraperitoneally at 100 µg/animal once every week. Treatment efficacy was assessed in terms of the effects of the test substances on the tumor volumes of treated mice relative to vehicle-treated mice. Tumor growth curves of test and control groups using the mean tumor volumes were drawn, percent tumor growth inhibition (%TGI) […]."}, "[5]": {"target": "T4, Cannabinoid CB1 (Homo sapiens, UniProt P21554)", "T4 construct": "Eurofins Cerep Panlabs", "T4 sequence (P21554 whole entry)": "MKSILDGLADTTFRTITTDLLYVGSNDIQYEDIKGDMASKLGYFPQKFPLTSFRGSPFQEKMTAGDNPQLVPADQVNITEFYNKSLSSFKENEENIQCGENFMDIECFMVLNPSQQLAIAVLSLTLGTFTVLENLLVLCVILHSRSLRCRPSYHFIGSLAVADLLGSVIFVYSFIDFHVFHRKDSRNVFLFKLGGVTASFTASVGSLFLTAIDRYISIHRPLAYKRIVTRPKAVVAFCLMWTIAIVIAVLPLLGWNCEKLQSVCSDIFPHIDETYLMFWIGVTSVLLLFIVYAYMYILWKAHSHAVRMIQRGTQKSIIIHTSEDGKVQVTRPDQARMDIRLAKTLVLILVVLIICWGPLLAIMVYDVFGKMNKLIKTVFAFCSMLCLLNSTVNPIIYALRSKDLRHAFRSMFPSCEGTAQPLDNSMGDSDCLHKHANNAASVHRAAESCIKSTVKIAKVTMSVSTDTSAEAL", "experiment": "CEREP 80 panel binding: Cannabinoid", "details": "read-out: % Inhibition of Control Specific Binding", "description": "(§2) CEREP 80 panel assay was carried out by Eurofins Cerep Panlabs facility at France. A series of binding assays was carried out to understand the off-target toxicity of CA-170. CA-170 was tested at 10 μM test concentration in duplicates. Compound binding was calculated as a % inhibition of the binding of a radioactively labeled ligand specific for each target. In each experiment the respective reference compound was tested concurrently with CA-170, and the data were compared with historical values determined at Eurofins. The experiment was accepted in accordance with Eurofins validation standard operating procedure. The results are expressed as a percent of control specific binding; (measured specific binding / control specific binding) × 100 and as a percent inhibition of control specific binding; 100−(measured specific binding / control specific binding) × 100 obtained in the presence of CA-170. The IC50 values (concentration causing a half-maximal inhibition of control specific binding) and Hill coefficients (nH) were determined by non-linear regression analysis of the competition curves generated with mean replicate values using Hill equation curve fitting."}, "[6]": {"system": "Cholecystokinin CCK1, CCK2", "experiment": "CEREP 80 panel binding: Cholecystokinin", "details": "10 µM", "description": "as §2"}, "[7]": {"system": "Endothelin ETA, ETB", "experiment": "CEREP 80 panel binding: Endothelin", "details": "10 µM", "description": "as §2"}, "[8]": {"details": "human PBMCs stimulated with anti-CD3 and anti-CD28"}}, "note": "Where “and” joins values, the source holds several entries; their conditions need not be identical. Equal entries are not always repeated."}
{"smiles": "C[C@@H](O)[C@H](NC(=O)N[C@@H](CC(N)=O)c1nc([C@@H](N)CO)no1)C(=O)O", "note": "[CA-170]", "values": [{"measurement": "EC50", "setting": "[1]", "result": 78.3, "unit": "nM"}, {"measurement": "IFNγ Rescue (%)", "setting": "[2]; 1.95 nM", "result": "-64.52% and -5.10% and -5.67%"}, {"measurement": "IFNγ Rescue (%)", "setting": "[2]; 3.91 nM", "result": "-3.89% and -4.90% and -5.25%"}, {"measurement": "IFNγ Rescue (%)", "setting": "[2]; 7.81 nM", "result": "-1.08% and -2.04% and -2.73%"}, {"measurement": "IFNγ Rescue (%)", "setting": "[2]; 15.63 nM", "result": "4.10% and 2.24% and 2.52%"}, {"measurement": "IFN-γ", "setting": "[2]; 31.25 nM", "result": "66.5 pg/mL and 74 pg/mL and 64 pg/mL"}, {"measurement": "IFNγ Rescue (%)", "setting": "[2]; 31.25 nM", "result": "4.10% and 2.86% and 1.89%"}, {"measurement": "IFNγ Rescue (%)", "setting": "[2]; 62.50 nM", "result": "39.96% and 36.33% and 35.71%"}, {"measurement": "IFNγ Rescue (%)", "setting": "[2]; 250.00 nM", "result": "74.73% and 74.90% and 79.20%"}, {"measurement": "IFN-γ", "setting": "[2]; 500 nM", "result": "869 pg/mL and 984 pg/mL and 1059 pg/mL"}, {"measurement": "IFNγ Rescue (%)", "setting": "[2]; 500.00 nM", "result": "73.43% and 77.14% and 85.50%"}, {"measurement": "rescue of IFNγ release inhibited by recombinant PD-L2 (in words)", "setting": "[2]; [8]", "result": "rescued IFNγ release"}, {"measurement": "EC50", "setting": "[2]; mean ± S.D., n=3", "result": 80.9, "unit": "nM"}, {"measurement": "IFNγ Rescue (%)", "setting": "[3]; 1.95 nM", "result": "-2.58% and 0.00% and 0.36%"}, {"measurement": "IFNγ Rescue (%)", "setting": "[3]; 3.91 nM", "result": "-0.86% and 0.32% and 1.09%"}, {"measurement": "IFNγ Rescue (%)", "setting": "[3]; 7.81 nM", "result": "5.58% and 4.87% and 6.18%"}, {"measurement": "IFNγ Rescue (%)", "setting": "[3]; 15.63 nM", "result": "21.46% and 16.88% and 19.64%"}, {"measurement": "IFN-γ", "setting": "[3]; 31.25 nM", "result": "1018 pg/mL and 1268 pg/mL and 1298 pg/mL"}, {"measurement": "IFNγ Rescue (%)", "setting": "[3]; 31.25 nM", "result": "36.91% and 37.66% and 42.55%"}, {"measurement": "IFNγ Rescue (%)", "setting": "[3]; 62.50 nM", "result": "48.07% and 36.69% and 46.91%"}, {"measurement": "IFNγ Rescue (%)", "setting": "[3]; 250.00 nM", "result": "107.73% and 72.73% and 91.64%"}, {"measurement": "IFN-γ", "setting": "[3]; 500 nM", "result": "2498 pg/mL and 2438 pg/mL and 2828 pg/mL"}, {"measurement": "IFNγ Rescue (%)", "setting": "[3]; 500.00 nM", "result": "100.43% and 75.65% and 98.18%"}, {"measurement": "rescue of IFNγ release inhibited by recombinant VISTA (in words)", "setting": "[3]; [8]", "result": "rescued IFNγ release"}, {"measurement": "EC50", "setting": "[3]; mean ± S.D., n=4, read-out: Human PBMC IFN-γ Rescue EC50 VISTA", "result": 82.9, "unit": "nM"}, {"measurement": "Individual tumor volumes", "setting": "[4]; CA-170 10 mg/kg PO daily, J43 100 µg/animal/week, 10 mg/kg", "result": "391.77 mm3 and 388.53 mm3 and 554.94 mm3 and 536.22 mm3 and 252.8 mm3 and 593.87 mm3 and 294.73 mm3 and 377.95 mm3 and 460.46 mm3 and 205.38 mm3"}, {"measurement": "tumor growth inhibition", "setting": "[4]; CA-170 10 mg/kg/day orally, PD-1 antibody 100 µg/animal/week", "result": 43, "unit": "%"}, {"measurement": "inhibition at 10 µM", "setting": "[5]", "result": 12, "unit": "%"}, {"measurement": "% Inhibition of Control Specific Binding", "setting": "[6]", "result": "< 0", "unit": "%"}, {"measurement": "% Inhibition of Control Specific Binding", "setting": "[7]", "result": "≤ 9", "unit": "%"}]}
